Data reported in US12558353B2 (CELLTAXIS, LLC, priority 2018, dated 2026).
“Also recorded” adds a separate entry of the source.

What was measured:
[1] = system: adult patients with cystic fibrosis; assay: EMPIRE-CF Phase II randomized placebo-controlled trial: pulmonary exacerbations; assay type: in vivo, human; conditions: for adjusted mean (95% CI) annualized pulmonary exacerbation rate: all lung disease phenotypes; for adjusted mean (95% CI) annualized pulmonary exacerbation rate / proportion of patients who did not experience a pulmonary exacerbation during the study period: 48 weeks; for patients who did not have a pulmonary exacerbation during the study: baseline FEV1pp>75% (mild disease)
Text: EMPIRE-CF was a Phase II multicenter, randomized, double-blind, placebo-controlled, parallel-group study to evaluate the efficacy and safety of acebilustat in adult patients with CF (NCT02443688). The study consisted of a 48-week treatment period and follow-up visit 4 weeks after treatment completion. Screening visits occurred up to 21 days prior to the first study drug dose (FIG. 2).
Patients were enrolled from 69 centers in the USA, Canada, and Europe. All centers were experienced in CF care and the conduct of clinical trials. In brief, adult women and men 18-30 years old with a documented diagnosis of CF, an FEV1pp≥50% at screening and at least one pulmonary exacerbation in the previous year were enrolled. Baseline demographics are presented in the section below.
Patients were randomized 1:1:1 to receive either once-daily oral acebilustat 50 mg or 100 mg (Celtaxsys, Atlanta, GA, USA), or placebo supplied as capsules. The two acebilustat doses were selected based on the levels of reduction of serum LTB4 production seen in Phase I studies.
Pulmonary exacerbations were defined as the requirement for oral, inhaled or intravenous antibiotics for four or more signs or symptoms according to the modified Fuch's criteria (change in sputum; new or increased hemoptysis; increased cough; increased dyspnea; malaise, fatigue or lethargy; temperature >38° C.; anorexia or weight loss; sinus pain or tenderness; change in sinus discharge; change in physical examination of the chest; ≥10% absolute decrease in FEV1pp from the previously recorded value; radiographic changes indicative of pulmonary infection) [Fuchs et al., 1994], referred collectively (antibiotics plus the four or more signs and symptoms) as expanded Fuchs criteria. The date the pulmonary exacerbation began was defined as the first day of antibiotic use.
Pulmonary exacerbations were analyzed both as the time to first pulmonary exacerbation and the rate of pulmonary exacerbations. The time to first protocol defined-pulmonary exacerbation were analyzed using a Cox proportional hazards model. The number of protocol-defined pulmonary exacerbations reported through the Week 48/Early Termination visit were annualized (where a year was defined as 52 weeks) analyzed using a negative binomial regression. The two active doses were compared to placebo individually as well as pooled together using a contrast statement similar to that used for the primary analysis. Point estimates, standard errors, and 95% CIs for the mean of number of pulmonary exacerbations were presented. The difference in means between each CTX-4430 group from placebo were presented along with standard errors and 95% CIs. Spirometry-based endpoints were analyzed using the same methods as the primary endpoint. Analyses of sputum DNA and elastase and serum high-sensitivity C-reactive protein were based upon descriptive statistics by treatment group.
The annual rate of pulmonary exacerbations was calculated by standard methods for each treatment group.

[2] = system: sputum neutrophils, sputum elastase, C-reactive protein, sputum LTB4; conditions: cited from earlier work
[3] = system: adult patients with cystic fibrosis; assay: EMPIRE-CF: absolute change from baseline in FEV1pp (spirometry); assay type: in vivo, human; conditions: 48 weeks of therapy
Experimental: The primary endpoints were absolute change from baseline in FEV1pp and safety outcomes. Secondary endpoints included rate of pulmonary exacerbations and time to first pulmonary exacerbation, and the effects on biomarkers of lung and systemic inflammation. Analyses are described in section entitled “Analysis.”
Spirometry data were recorded at screening and baseline; all other spirometric measurements at subsequent visits are ideally recorded within ±1 h of the baseline visit measurement. All tests met American Thoracic Society/European Respiratory Society criteria for quality (acceptability, reproducibility, and end of test criteria) [Miller et al., 2005]. To ensure consistency of measurement, spirometry measurements were ideally performed by the same researcher and the patient coached to use maximum effort at every attempt. Patients were able to take all of their concomitant medications according to their regular schedule; however, they were to refrain from using short-acting bronchodilators within 4 h of the scheduled spirometry time, and long-acting bronchodilators within 12-24 h of the scheduled spirometry time.
The primary analysis was based upon an analysis of variance (ANOVA) in which the average of the Week 48 change from baseline in FEV1pp for the two acebilustat doses was compared to that in the placebo group. […]

LTB4 production = conditions: cited from earlier work
[4] = 100 mg dose, baseline FEV1pp>75%, FAP
[5] = FEV1pp greater than 75 and concomitant CFTR modulator therapy
[6] = FEV1pp>75 at baseline, 100 mg dose
[7] = acebilustat-treated patients overall, analysis population not given
[8] = baseline FEV1pp>75%, FAP, 50 mg
[9] = baseline FEV1pp>75%, FAP, 100 mg
[10] = concomitant CFTR modulator therapy, 100 mg dose
[11] = once-daily, adult patients with CF

O=C(O)c1ccc(CN2C[C@@H]3C[C@H]2CN3Cc2ccc(Oc3ccc(-c4ncco4)cc3)cc2)cc1 [acebilustat, 4-{[(1S,4S)-5-({4-[4-oxazol-2-yl-phenoxy]phenyl}methyl)-2,5-diazabicyclo[2.2.1]heptan-2-yl]methyl}benzoic acid]
rate of pulmonary exacerbations requiring hospitalization as compared to placebo [1, 4]: lower rate
rate of pulmonary exacerbations requiring intravenous antibiotics as compared to placebo [1, 4]: lower the rate
Annualized Rate of Pulmonary Exacerbation (Adjusted Mean) ([1]; Baseline ppFEV1 >60, 50 mg): 1.44
Annualized Rate of Pulmonary Exacerbation, % difference from Placebo ([1]; Baseline ppFEV1 >60, 50 mg): −2%
Annualized Rate of Pulmonary Exacerbation (Adjusted Mean) ([1]; Baseline ppFEV1 >60, 100 mg): 1.27
Annualized Rate of Pulmonary Exacerbation, % difference from Placebo ([1]; Baseline ppFEV1 >60, 100 mg): −14%
Annualized Rate of Pulmonary Exacerbation (Adjusted Mean) ([1]; Baseline ppFEV1 >65, 50 mg): 1.25
Annualized Rate of Pulmonary Exacerbation, % difference from Placebo ([1]; Baseline ppFEV1 >65, 50 mg): −14%
Annualized Rate of Pulmonary Exacerbation (Adjusted Mean) ([1]; Baseline ppFEV1 >65, 100 mg): 1.05
Annualized Rate of Pulmonary Exacerbation, % difference from Placebo ([1]; Baseline ppFEV1 >65, 100 mg): −28%
Annualized Rate of Pulmonary Exacerbation (Adjusted Mean) ([1]; Baseline ppFEV1 >68, 50 mg): 1.12
Annualized Rate of Pulmonary Exacerbation, % difference from Placebo ([1]; Baseline ppFEV1 >68, 50 mg): −7%
Annualized Rate of Pulmonary Exacerbation (Adjusted Mean) ([1]; Baseline ppFEV1 >68, 100 mg): 0.81
Annualized Rate of Pulmonary Exacerbation, % difference from Placebo ([1]; Baseline ppFEV1 >68, 100 mg): −33%
Annualized Rate of Pulmonary Exacerbation (Adjusted Mean) ([1]; Baseline ppFEV1 >70, 50 mg): 1.2
Annualized Rate of Pulmonary Exacerbation, % difference from Placebo ([1]; Baseline ppFEV1 >70, 50 mg): −22%
Annualized Rate of Pulmonary Exacerbation (Adjusted Mean) ([1]; Baseline ppFEV1 >70, 100 mg): 0.92
Annualized Rate of Pulmonary Exacerbation, % difference from Placebo ([1]; Baseline ppFEV1 >70, 100 mg): −40%
Annualized Rate of Pulmonary Exacerbation (Adjusted Mean) ([1]; Baseline ppFEV1 >75, 50 mg): 1.28
Annualized Rate of Pulmonary Exacerbation, % difference from Placebo ([1]; Baseline ppFEV1 >75, 50 mg): −20%
Annualized Rate of Pulmonary Exacerbation (Adjusted Mean) ([1]; Baseline ppFEV1 >75, 100 mg): 0.84
Annualized Rate of Pulmonary Exacerbation, % difference from Placebo ([1]; Baseline ppFEV1 >75, 100 mg): −48%
time at which divergence in pulmonary exacerbation from placebo occurred ([1]; FAP and PP analysis): approximately 4 months
adjusted mean (95% CI) annualized pulmonary exacerbation rate ([1]; FAP, 50 mg once daily oral): 1.46 (1.13, 1.89)
adjusted mean (95% CI) annualized pulmonary exacerbation rate ([1]; FAP, 100 mg once daily oral): 1.57 (1.22, 2.02)
adjusted mean (95% CI) annualized pulmonary exacerbation rate ([1]; FAP, combined acebilustat groups): 1.51 (1.26, 1.81)
time to first pulmonary exacerbation, hazard ratio versus placebo (95% CI) ([1]; FAP, 50 mg): 0.86 (0.563, 1.308)
proportion of patients who did not experience a pulmonary exacerbation during the study period ([1]; FAP, 50 mg): 39%
time to first pulmonary exacerbation, hazard ratio versus placebo (95% CI) ([1]; FAP, 100 mg): 0.88 (0.576, 1.339)
proportion of patients who did not experience a pulmonary exacerbation during the study period ([1]; FAP, 100 mg): 38%
time to first pulmonary exacerbation, hazard ratio versus placebo (95% CI) ([1]; FAP, acebilustat combined group): 0.87 (0.605, 1.246)
proportion of patients who did not experience a pulmonary exacerbation during the study period ([1]; FAP, combined acebilustat dose group): 38%
response to acebilustat treatment (rate of exacerbations, hazard ratio) ([1]; FEV1 at or below 75% (≤75%)): did not exhibit the same level of response
decrease in the rate of pulmonary exacerbations versus placebo [1, 5]: 54%
higher proportion of patients exacerbation free at 48 weeks versus placebo [1, 5]: 165%
decrease in the rate of pulmonary exacerbations versus placebo ([1]; FEV1pp greater than 75 and concomitant CFTR modulator therapy, 100 mg dose): 65%
higher proportion of patients exacerbation free after 48 weeks of treatment versus placebo [1, 6]: 100%
reduction in PEx rate versus placebo [1, 6]: 48%
reduction in risk of experiencing first exacerbation versus placebo [1, 6]: 48%
more patients with no PEx during the study compared with placebo [1, 7]: 32%
reduced risk in progressing to first PEx versus placebo [1, 7]: 22%
reduction in PEx versus placebo [1, 7]: 18%
response to acebilustat treatment (rate of pulmonary exacerbations) ([1]; baseline FEV1pp at or below the median (≤68%)): did not exhibit the same level of response
annual rate of pulmonary exacerbations versus placebo ([1]; baseline FEV1pp higher than the median (>68%)): lower annual rate of pulmonary exacerbations versus placebo
patients who did not have a pulmonary exacerbation during the study ([1]; 50 mg): 48%
patients who did not have a pulmonary exacerbation during the study ([1]; 100 mg): 50%
patients who did not have a pulmonary exacerbation during the study ([1]; combined acebilustat group): 49%
adjusted mean (95% CI) annualized rate of pulmonary exacerbations [1, 8]: 1.28 (0.84, 1.96)
time to first pulmonary exacerbation, hazard ratio (95% CI) versus placebo [1, 8]: 0.62 (0.304, 1.274)
adjusted mean (95% CI) annualized rate of pulmonary exacerbations [1, 9]: 0.84 (0.49, 1.44)
time to first pulmonary exacerbation, hazard ratio (95% CI) versus placebo [1, 9]: 0.52 (0.245, 1.101)
time to first pulmonary exacerbation, hazard ratio (95% CI) versus placebo ([1]; baseline FEV1pp>75%, FAP, acebilustat combined group): 0.57 (0.307, 1.051)
adjusted mean (95% CI) annualized rate of pulmonary exacerbations ([1]; baseline FEV1pp>75%, FAP, combined acebilustat groups): 1.04 (0.74, 1.46)
reduction in rate of PEx versus CFTR modulators and placebo ([1]; concomitant CFTR modulator therapy, regardless of disease severity, 100 mg dose): 14%
higher proportion of patients with no exacerbations versus CFTR modulators and placebo [1, 10]: 51%
increased time to first exacerbation versus CFTR modulators and placebo [1, 10]: 27%
higher percentage of patients that were exacerbation free ([1]; patients off CFTR modulator therapy): about 15%
C-reactive protein ([2]; acebilustat treated groups): Numerical reductions
reduction of sputum elastase levels [2, 11]: up to 58%
reduction of sputum neutrophil levels [2, 11]: up to 65%
sputum LTB4 levels, acebilustat- vs placebo-treated patients ([2]; patients with CF): decreased significantly
absolute change in FEV1pp from baseline at Week 48 versus placebo (primary endpoint) [3]: not different from placebo; also recorded: did not separate from placebo; also recorded: No difference between acebilustat and placebo
peak reduction in LTB4 production (LTB4 production; 50 mg dose): ~75%
reduction of serum LTB4 production (LTB4 production; 100 mg dose, near-maximum): 86%
